Measurements as given in US9593068B2, “Derivatives of tartaric acid” (RATIOPHARM GMBH, priority 2013, dated 2017).

Test: Kinetics of MMF-release during incubation in intestinal fluid of the minipig (LC-MS quantification of MMF)
Assay type: in vitro ADME, Göttingen SPF minipig
Conditions: diluted small intestinal fluid (1/20 v/v with 50 mM KH2PO4, pH 6.8), 37° C., samples at 0-120 min; reference DMF; FIG. 1 / FIG. 2
Experimental: Investigation and Comparision of the Kinetics of MMF-Release of the Different Compounds of the Present Invention and DMF During Incubation in Intestinal Fluid of the Minipig
Intestinal fluid samples were prepared at CiToxLAB Scantox A/S. The samples were taken from 1 female Göttingen SPF minipig from CiToxLAB Scantox A/S standard stock, originally obtained from Ellegaard Göttingen Minipigs A/S, DK-4261 Dalmose, Denmark. The minipig was 10 months old and the body weight was 21 kg. The minipig was identified by an individual number tagged to the pinna of one ear (animal number is documented in the raw data).
The minipig was fasted for approximately 28 hours before sampling of intestinal fluid. On the day of sampling, the minipig was weighed and anaesthetised by an intramuscular injection in the neck or in the left hind leg (about 0.3 ml per kg body weight) of a mixture of Zoletil 50 Vet., Virbac, France (125 mg tiletamine and 125 mg zolazepam), Rompun Vet., Bayer, Germany (20 mg xylazine/ml, 6.5 ml), Ketaminol Vet., Veterinaria AG, Switzerland (100 mg ketamine/ml, 1.5 ml) and Methadon DAK, Nycomed Danmark, Denmark (10 mg methadon/ml, 2.5 ml).
Intestinal fluid was obtained by flushing one jejunal segment, measuring 30.2 cm, with saline. Intestinal fluid together with saline used for flushing was placed in centrifuge tubes. All samples were frozen at −70° C. and shipped on dry ice to the Sponsor for further use.
2.1.1. Analytical Instrument • Instrument: Acquity UPLC system coupled with a TQ detector (triple quadruple mass spectrometer)
Calibration solutions were prepared by serial dilution of SSMMF; diluted small intestinal fluid (diluted by 1/20 v/v with 50 mM KH2PO4, pH 6.8; (dil IF) was used as matrix. The dilution scheme is given below:
50 μl sample (calibration solution or sample of an incubation experiment with MMF prodrugs) was mixed with 50 μl WSISTD, 20 μl formic acid and 100 μl acetonitrile. This mixture was vortexed for 15 sec and centrifuged (13,000 rpm, 3 min). Thereafter, 4 μl of the supernatant were subjected to LC-MS analysis.
2.2. Incubation Experiments with DMF (Reference) and Compounds of the Invention
Stock solutions were prepared in DMSO. Concentrations in stock solutions were 5.00, 2.50 and 1.67 mmol for compounds with one, two and three molar MMF equivalents.
In a HPLC glass vial, 8 μl of stock solution were mixed with 792 μl dil IF and the mixture was stirred (250 rpm) in a water bath (T=37° C.).
Immediately after mixing as well as at t=15 min, 30 min, 60 min, 90 min and 120 min, 50 μl were withdrawn and prepared for LC-MS analysis as described in chapter. 2.1.3.
Incubations were continued and in case the result of analysis of the 120 min indicated the presence of remaining intact MMF prodrug, additional samples were taken (t=360 or 420 min and at 1,260 or 1,320 min) and analysed.
The concentration/peak area ratio data pairs were subjected to regression analysis with 1/x weighting and the resulting calibration equation was used to quantify the MMF content in incubation samples.

SMILES	hydrolyzation (to MMF) compared to DMF	release kinetics (MMF release) compared to DMF
CCOC(=O)[C@H](OC(=O)/C=C/C(=O)OC)[C@@H](OC(=O)/C=C/C(=O)OC)C(=O)OCC [Example 1, (E)-But-2-enedioic acid (1R,2R)-1,2-bis-ethoxy-carbonyl-2-((E)-3-methoxycarbonyl-acryloyloxy)-ethyl ester methyl ester]	modified hydrolyzation compared to DMF	significantly slower than the one of DMF
COC(=O)/C=C/C(=O)O[C@@H](C(=O)OC(C)C)[C@@H](OC(=O)/C=C/C(=O)OC)C(=O)OC(C)C [Example 2, (E)-But-2-enedioic acid (1R,2R)-1,2-bis-isopropoxycarbonyl-2-((E)-3-methoxycarbonyl-acryloyloxy)-ethyl ester methyl ester]	modified hydrolyzation compared to DMF	significantly slower than the one of DMF
COC(=O)/C=C/C(=O)OCCN(CCO)CCOC(=O)/C=C/C(=O)OC [Example 3, (2-Hydroxy-ethyl)-bis-[2-((E)-3-methoxycarbonyl-acryloyloxy)-ethyl]-amine]	modified hydrolyzation compared to DMF	significantly slower than the one of DMF
